Measured values taken from patent US20120302616A1, “METHOD OF TREATMENT OF OBSESSIVE COMPULSIVE DISORDER WITH ONDANSETRON” (priority 2010, published 2012).
Several values for one entry are separate records, joined by “and”; a condition that tells them apart may be missing. Equal entries are not always repeated.

Key:
[1] = tested on: patients with treatment-resistant OCD; assay: Ondansetron augmentation of SRI plus antipsychotic therapy, single-blind 12-week study (YBOCS, CGI, MADRS); type: in vivo, human
Text: Between March 2008 and November 2008, fourteen adults aged 18 to 55 were enrolled in a study at the Institute for Neuroscience, Florence, Italy. […] All diagnoses were established utilizing a structured interview, the Structured Clinical Interview for DSM IV Axis I Disorders (SCID I). (See Spitzer, R. L. et al. ARCH GEN PSYCHIATRY 49(8):624-649) Potential subjects with a history of alcohol or substance abuse, current severe depressive symptoms, bipolar disorder, panic disorder, schizophrenia, other psychiatric conditions, heart disease, arrhythmia, liver problems (including cirrhosis), seizures, glaucoma or serious medical disease were excluded. Patients with hoarding as their only OCD symptom and women of childbearing potential not using a medically acceptable contraceptive method were also excluded. After being fully informed about the study and signing an informed consent approved by the Internal Institutional Review Board, subjects were administered an ondansetron hydrochloride (oral solution) dosage of 0.25 mg twice a day for 6 weeks, followed by 0.5 mg twice a day for 6 weeks for a total observation period of 12 weeks. […] The Y-BOCS, Montgomery-Asberg Depression Rating Scale (MADRS) (see Montgomery, S. A., BR J PSYCHIATRY 1979; 134:382-389) was administered at screening and baseline, and these assessments were repeated at every follow-up visit at 2-week intervals, along with the Clinical Global Impressions-Improvement (CGI-I) rating (see Guy, W. ECDEU Assessment Manual for Psychopharmacology. US Dept Health, Education, and Welfare publication (ADM) 76-338. Rockville, Md.: National Institute of Mental Health; 1976:218-222) and an unpublished Drug Effect scale. The Drug Effect scale asked subjects to rate “How anxious are you now?” on a scale of zero (not at all) to 10 (“the most anxious I have ever been”). Similar rating questions have been “Do you experience appearance or increment in frequency of headaches?”, “Do you experience appearance or increment in frequency of headaches fatigue?” and “Do you experience appearance or increment in frequency of headaches constipation” and so on regarding other common ondansetron side effects (diarrhea, urinary retention, itching, and dizziness). Furthermore, each evening during the first week of study medication, a study psychiatrist called the subject to ask for major or unexpected collateral effects (as chest pain, an unexplained skin rash, or tremors.). […] (See […]. et al., AM J PSYCHIATRY 1997; 154:320-321) Subjects with MADRS scores ≧18 were excluded. Ratings were administered by an investigator who was blind to the treatment condition of the patients. Given the small sample size, mean changes from baseline in rating scales were tested with a non-parametric method based on ranks (Wilcoxon signed rank test), using a two-tailed significance level of p≦0.05. Relationships among rated and demographical variables were tested with Spearman's rank correlation tests, using a two-tailed significance level of p≦0.05. Age, baseline OCD severity, and depressive symptoms were controlled for by stratifying through the Mantel-Haenszel χ2 test. Body mass index (BMI) was adjusted given the differences of ondansetron bioavailability according to BMI.

[2] = tested on: mesenteric bed or the nerves in the heart; settings: animal studies; cited from earlier work
[3] = tested on: patients with treatment-resistant OCD; assay: Side effects and vital signs in the SRI plus antipsychotic augmentation study; type: in vivo, human
Description: The Y-BOCS, Montgomery-Asberg Depression Rating Scale (MADRS) (see Montgomery, S. A., BR J PSYCHIATRY 1979; 134:382-389) was administered at screening and baseline, and these assessments were repeated at every follow-up visit at 2-week intervals, along with the Clinical Global Impressions-Improvement (CGI-I) rating (see Guy, W. ECDEU Assessment Manual for Psychopharmacology. US Dept Health, Education, and Welfare publication (ADM) 76-338. Rockville, Md.: National Institute of Mental Health; 1976:218-222) and an unpublished Drug Effect scale. The Drug Effect scale asked subjects to rate “How anxious are you now?” on a scale of zero (not at all) to 10 (“the most anxious I have ever been”). Similar rating questions have been “Do you experience appearance or increment in frequency of headaches?”, “Do you experience appearance or increment in frequency of headaches fatigue?” and “Do you experience appearance or increment in frequency of headaches constipation” and so on regarding other common ondansetron side effects (diarrhea, urinary retention, itching, and dizziness). Furthermore, each evening during the first week of study medication, a study psychiatrist called the subject to ask for major or unexpected collateral effects (as chest pain, an unexplained skin rash, or tremors.). […] (See Mittmann, N. et al., AM J PSYCHIATRY 1997; 154:320-321) Subjects with MADRS scores ≧18 were excluded. Ratings were administered by an investigator who was blind to the treatment condition of the patients.
One patient reported a mild increase in anxiety levels, which lasted only one night. No change in mean pulse rate or mean blood pressure was observed. […] The daily dose of 1 mg/day divided in twice daily administration, approximately 5% of the minimum dose recommended for emesis and nausea treatment was reached after 6 weeks and maintained until the 12th week.

[4] = End of 6th week, Non responder (n = 5)
[5] = End of 6th week, Responder (n = 9)
[6] = End of 12th week, Non responder (n = 5)
[7] = End of 12th week, Responder (n = 9)
[8] = from baseline, individual patients 1-14
[9] = first 2 weeks of treatment, n=14

Cc1nccn1CC1CCc2c(c3ccccc3n2C)C1=O (stereo not shown) [ondansetron]
YBOCS Score ([1]; 6 weeks, individual patients 1-14): 25 (3×) and 28 and 17 (2×) and 16 and 27 and 26 and 24 (3×) and 19 and 21 | average YBOCS score decrease of the whole group ([1]; 6 weeks, n=14): 16% | patients reaching YBOCS criteria for treatment response (decrease of ≧25%) ([1]; 12th week, 9/14): 64.2% | patients very much improved or much improved (CGI-I 1 or 2) ([1]; 12th week, of 14): seven | YBOCS Score ([1]; 12 weeks, individual patients 1-14): 25 (3×) and 15 (2×) and 14 and 30 and 23 and 22 (2×) and 24 and 18 and 17 and 20 | average YBOCS score decrease of the whole group ([1]; 12 weeks, n=14): 23% | patients with greater than 25% improvement in OCD symptoms ([1]; 12 weeks, n=14): Sixty-four | CGI (mean) [1, 4]: 4.6 | MADRS (mean) [1, 4]: 8.0 | CGI (mean) [1, 5]: 3.4 | MADRS (mean) [1, 5]: 6.7 | CGI (mean) [1, 6]: 4.8 | MADRS (mean) [1, 6]: 7.6 | YBOCS (mean) [1, 6]: 21.4 | CGI (mean) [1, 7]: 2.3 | MADRS (mean) [1, 7]: 6.8 | YBOCS score decrease ([1]; Patient 11 (citalopram 60 mg/day and risperidone 2 mg/day), 12th week): ≥ 35% | Mean MADRS scores change from baseline ([1]; baseline to the end of week 1): did not change significantly | YBOCS Percent Reduction at 6 weeks [1, 8]: 20.00% (2×) and 15.00% and .00% | YBOCS Percent Reduction at 12 weeks [1, 8]: 28.57% and 25.00% (2×) and 30.00% | patients with significant improvement in OCD symptoms ([1]; out of 14, within 12 weeks of treatment): 9 | Clinical Global Impressions-Improvement (CGI-I) scores ([1]; through week 12): improved concurrent with improvement in the YBOCS scores | outcome after discontinuation of the ondansetron ([1]; two responder patients): experienced worsening | effect on the mesenteric bed or the nerves in the heart [2]: did not appear to have effect | subjects with significant or lasting side effects (such as constipation) ([3]; 12 weeks): None | subjects with significant side effects or worsening of OC symptoms ([3]; at 6 weeks, fourteen subjects): None | patients with decreased appetite [3, 9]: two | patients with headache [3, 9]: two | patients with mild increase in anxiety levels ([3]; lasted only one night, n=14): One | mean pulse rate or mean blood pressure ([3]; n=14): No change | Side effects severity ([3]; throughout the study, n=14): mild to moderate
